In patent publication US20090325959A1 (priority 2008, published 2009):
Read-outs that look alike come from different tables or passages of the source.

Assays:
ROCK1 = target: T1, ROCK1 (Homo sapiens, UniProt Q13464); assay: Rho kinase inhibition assay (IMAP fluorescence polarization), ROCK1; type: biochemical;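 also: kinase reaction run 60 min at room temperature, then phosphorylated substrate captured on IMAP beads for 30 min, with fluorescence polarization read in mP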
T1 construct: purchased Upstate/Chemicon 14-601
Method: (§1) Following the pre-incubation, 10 μM ATP was added to initiate the reaction. After 60 minutes at room temperature, Molecular Devices IMAP™ binding solution was added to bind phosphorylated substrate. After 30 minutes of incubation in the presence of the IMAP™ beads, the fluorescence polarization was read and the ratio was reported as mP. IC50 values for compounds and EC50 values for ATP were calculated using the Prism software from Graphpad.

ROCK2 = target: T2, ROCK2 (Homo sapiens, UniProt O75116); assay: Rho kinase inhibition assay (IMAP fluorescence polarization), ROCK2; type: biochemical;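 also: kinase reaction started with 10 µM ATP and run 60 min at room temperature, then phosphorylated substrate captured on IMAP beads for 30 min and fluorescence polarization read in mP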
T2 construct: purchased Upstate/Chemicon 14-451
Method: as §1

Akt3 human enzyme = target: T3, Akt3 human enzyme (Homo sapiens, UniProt Q9Y243); assay: Akt3 inhibition assay (IMAP FP); type: biochemical;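 also: kinase reaction run 60 min at room temperature after 30 µM ATP start, phosphorylated substrate captured on IMAP beads and read as fluorescence polarization (mP)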
T3 construct: purchased Upstate Chemicon 14-502

p70S6K human enzyme = target: T4, p70S6K human enzyme (Homo sapiens, UniProt P23443, T412E); assay: p70S6K inhibition assay (IMAP FP); type: biochemical;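 also: kinase reaction run at room temperature, phosphorylated substrate captured on IMAP beads and read as fluorescence polarization in mP, IC50 then converted to Ki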
T4 construct: purchased Upstate Chemicon 14-486

[1] = Compound plasma concentrations in unsensitized mice at 15 min post administration; type: in vivo; conditions: mouse, 15 μmol/kg; mean compound plasma concentration in mice at 15 minutes post oral administration; read-out: Mouse Oral PK
[2] = 10 μM ATP, read-out: ROCK2 Ki, Avg
[3] = 30 μM ATP, Ki=IC50/(1+([ATP Challenge]/EC50 ATP)), read-out: Akt3 Ki, Avg
[4] = 30 μM ATP, Ki=IC50/(1+([ATP Challenge]/EC50 ATP)), read-out: p70S6K Ki, Avg
[5] = average Ki, read-out: p70S6K Ki

T1 sequence (Q13464 17-535 limits assumed): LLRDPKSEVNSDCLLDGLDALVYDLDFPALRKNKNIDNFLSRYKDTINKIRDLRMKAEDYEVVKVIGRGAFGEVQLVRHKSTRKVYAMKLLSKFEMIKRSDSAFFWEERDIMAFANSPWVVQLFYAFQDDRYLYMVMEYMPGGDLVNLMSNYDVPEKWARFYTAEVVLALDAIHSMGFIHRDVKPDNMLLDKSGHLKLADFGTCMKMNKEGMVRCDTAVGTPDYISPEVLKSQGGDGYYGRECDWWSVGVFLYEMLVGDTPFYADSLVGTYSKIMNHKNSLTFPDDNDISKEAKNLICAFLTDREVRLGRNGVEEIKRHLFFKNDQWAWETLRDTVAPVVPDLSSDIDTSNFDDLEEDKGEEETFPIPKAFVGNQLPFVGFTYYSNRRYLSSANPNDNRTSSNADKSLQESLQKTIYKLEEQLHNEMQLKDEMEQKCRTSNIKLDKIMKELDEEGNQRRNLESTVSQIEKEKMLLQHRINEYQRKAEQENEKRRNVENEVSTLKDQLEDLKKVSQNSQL
T2 sequence (O75116 11-552 limits assumed): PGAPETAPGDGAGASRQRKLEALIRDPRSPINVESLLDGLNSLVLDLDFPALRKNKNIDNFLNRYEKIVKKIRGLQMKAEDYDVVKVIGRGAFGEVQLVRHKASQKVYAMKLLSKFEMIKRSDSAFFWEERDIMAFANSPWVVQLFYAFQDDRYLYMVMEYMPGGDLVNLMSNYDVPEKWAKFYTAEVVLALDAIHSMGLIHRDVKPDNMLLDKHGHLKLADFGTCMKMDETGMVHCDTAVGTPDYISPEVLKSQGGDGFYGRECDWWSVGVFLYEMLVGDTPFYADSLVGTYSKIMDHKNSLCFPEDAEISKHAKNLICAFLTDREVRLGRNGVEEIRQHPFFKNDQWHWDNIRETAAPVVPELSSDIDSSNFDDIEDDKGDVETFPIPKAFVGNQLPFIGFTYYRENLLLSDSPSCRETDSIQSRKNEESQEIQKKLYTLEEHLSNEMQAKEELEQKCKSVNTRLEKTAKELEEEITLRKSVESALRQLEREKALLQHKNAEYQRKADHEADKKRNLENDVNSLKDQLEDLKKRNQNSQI
T4 sequence (P23443 1-421 T412E limits assumed): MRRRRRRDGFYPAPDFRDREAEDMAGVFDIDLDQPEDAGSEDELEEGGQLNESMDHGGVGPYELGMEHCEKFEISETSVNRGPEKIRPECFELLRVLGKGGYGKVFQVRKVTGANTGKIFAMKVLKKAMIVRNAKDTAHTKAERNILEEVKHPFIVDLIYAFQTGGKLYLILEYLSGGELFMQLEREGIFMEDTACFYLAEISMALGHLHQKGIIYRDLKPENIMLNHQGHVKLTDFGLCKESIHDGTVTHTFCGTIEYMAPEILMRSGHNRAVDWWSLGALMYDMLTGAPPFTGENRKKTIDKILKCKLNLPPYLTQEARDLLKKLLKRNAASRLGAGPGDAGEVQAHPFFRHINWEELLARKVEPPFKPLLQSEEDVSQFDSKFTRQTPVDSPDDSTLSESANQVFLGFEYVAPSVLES
T3 sequence (Q9Y243 whole entry): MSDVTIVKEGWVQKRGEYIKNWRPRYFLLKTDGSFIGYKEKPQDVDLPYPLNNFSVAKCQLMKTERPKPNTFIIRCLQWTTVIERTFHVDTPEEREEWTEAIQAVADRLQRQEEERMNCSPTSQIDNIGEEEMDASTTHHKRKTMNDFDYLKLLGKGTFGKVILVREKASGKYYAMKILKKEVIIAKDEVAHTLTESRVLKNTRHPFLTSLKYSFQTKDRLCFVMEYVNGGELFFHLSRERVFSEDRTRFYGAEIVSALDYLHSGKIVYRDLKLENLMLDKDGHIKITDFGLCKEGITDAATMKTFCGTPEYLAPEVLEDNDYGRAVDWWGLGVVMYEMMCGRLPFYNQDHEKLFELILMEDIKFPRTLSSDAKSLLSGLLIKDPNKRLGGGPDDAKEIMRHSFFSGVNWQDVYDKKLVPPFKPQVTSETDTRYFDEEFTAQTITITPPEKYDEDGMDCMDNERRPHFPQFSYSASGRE

## Oc1cccc(CN2CCC[C@H](Nc3ccc4[nH]ncc4c3)C2)c1 [Compound 1.163, (S)-3-((3-(1H-indazol-5-ylamino)piperidin-1-yl)methyl)phenol]
ROCK1; Avg, 10 μM ATP
  Ki: 0.0336 µM
ROCK1; average Ki
  Ki: 0.0336 µM
ROCK2; [2]
  Ki: 0.0029 µM
ROCK2; average Ki, read-out: ROCK2 Ki
  Ki: 0.0029 µM
Akt3 human enzyme; [3]
  Ki: 4.42 µM
Akt3 human enzyme; average Ki, read-out: Akt3 Ki
  Ki: 4.42 µM
p70S6K human enzyme; [4]
  Ki: 1.88 µM
p70S6K human enzyme; [5]
  Ki: 1.88 µM
[1]
  concentration at 15 min: 0.01 µM

## COc1ccc(CN2CCC[C@H](Nc3ccc4[nH]ncc4c3)C2)cc1 [Compound 1.079, (S)-N-(1-(4-methoxybenzyl)piperidin-3-yl)-1H-indazol-5-amine]
ROCK1; Avg, 10 μM ATP
  Ki: 0.0715 µM
ROCK1; average Ki
  Ki: 0.0715 µM
ROCK2; [2]
  Ki: 0.0047 µM
ROCK2; average Ki, read-out: ROCK2 Ki
  Ki: 0.0047 µM
Akt3 human enzyme; [3]
  Ki: 7.19 µM
Akt3 human enzyme; average Ki, read-out: Akt3 Ki
  Ki: 7.19 µM
p70S6K human enzyme; [4]
  Ki: 3.01 µM
p70S6K human enzyme; [5]
  Ki: 3.01 µM
[1]
  concentration at 15 min: 2.44 µM

## CS(=O)(=O)Nc1cccc(CN2CCC[C@@H](Nc3ccc4[nH]ncc4c3)C2)c1 [Compound 1.093, (R)-N-(3-((3-(1H-indazol-5-ylamino)piperidin-1-yl)methyl)phenyl)methanesulfonamide]
ROCK1; Avg, 10 μM ATP
  Ki: 0.0645 µM
ROCK1; average Ki
  Ki: 0.0645 µM
ROCK2; [2]
  Ki: 0.0077 µM
ROCK2; average Ki, read-out: ROCK2 Ki
  Ki: 0.0077 µM
Akt3 human enzyme; [3]
  Ki: 1.82 µM
Akt3 human enzyme; average Ki, read-out: Akt3 Ki
  Ki: 1.82 µM
p70S6K human enzyme; [4]
  Ki: 2.03 µM
p70S6K human enzyme; [5]
  Ki: 2.03 µM
[1]
  concentration at 15 min: 0.363 µM

## OCCn1ccc2ccc(CN3CC[C@@H](Nc4cccc5cnccc45)C3)cc21 [Compound 2.060, (R)-2-(6-((3-(isoquinolin-5-ylamino)pyrrolidin-1-yl)methyl)-1H-indol-1-yl)ethanol]
ROCK1; Avg, 10 μM ATP
  Ki: 0.0049 µM
ROCK1; average Ki
  Ki: 0.0049 µM
ROCK2; [2]
  Ki: 0.0032 µM
ROCK2; average Ki, read-out: ROCK2 Ki
  Ki: 0.0032 µM
Akt3 human enzyme; [3]
  Ki: 0.329 µM
Akt3 human enzyme; average Ki, read-out: Akt3 Ki
  Ki: 0.329 µM
p70S6K human enzyme; [4]
  Ki: 0.181 µM
p70S6K human enzyme; [5]
  Ki: 0.181 µM
[1]
  concentration at 15 min: 0.308 µM

## Cc1ccc(CN2CCC[C@@H](Nc3ccc4[nH]ncc4c3)C2)c(C)c1 [Compound 1.137, (R)-N-(1-(2,4-dimethylbenzyl)piperidin-3-yl)-1H-indazol-5-amine]
ROCK1; Avg, 10 μM ATP
  Ki: 0.0258 µM
ROCK1; average Ki
  Ki: 0.0363 µM
ROCK2; [2]
  Ki: 0.0051 µM
ROCK2; average Ki, read-out: ROCK2 Ki
  Ki: 0.0072 µM
Akt3 human enzyme; [3]
  Ki: 0.198 µM
Akt3 human enzyme; average Ki, read-out: Akt3 Ki
  Ki: 0.198 µM
p70S6K human enzyme; [4]
  Ki: 0.354 µM
p70S6K human enzyme; [5]
  Ki: 0.354 µM
[1]
  concentration at 15 min: 0.557 µM

## CS(=O)(=O)Nc1cc(CN2CCC[C@@H](Nc3ccc4[nH]ncc4c3)C2)ccc1Cl [Compound 1.212, (R)-N-(5-((3-(1H-indazol-5-ylamino)piperidin-1-yl)methyl)-2-chlorophenyl)methanesulfonamide]
ROCK1; Avg, 10 μM ATP
  Ki: 0.0442 µM
ROCK1; average Ki
  Ki: 0.0442 µM
ROCK2; [2]
  Ki: 0.0039 µM
ROCK2; average Ki, read-out: ROCK2 Ki
  Ki: 0.0039 µM
Akt3 human enzyme; [3]
  Ki: 0.39 µM
Akt3 human enzyme; average Ki, read-out: Akt3 Ki
  Ki: 0.39 µM
p70S6K human enzyme; [4]
  Ki: 0.894 µM
p70S6K human enzyme; [5]
  Ki: 0.894 µM
[1]
  concentration at 15 min: 0.863 µM

## Clc1ccc(CN2CCC[C@H](Nc3ccc4[nH]ncc4c3)C2)cc1 [Compound 1.141, (S)-N-(1-(4-chlorobenzyl)piperidin-3-yl)-1H-indazol-5-amine]
ROCK1; Avg, 10 μM ATP
  Ki: 0.0285 µM
ROCK1; average Ki
  Ki: 0.0285 µM
ROCK2; [2]
  Ki: 0.0038 µM
ROCK2; average Ki, read-out: ROCK2 Ki
  Ki: 0.0038 µM
Akt3 human enzyme; [3]
  Ki: 1.26 µM
Akt3 human enzyme; average Ki, read-out: Akt3 Ki
  Ki: 1.26 µM
p70S6K human enzyme; [4]
  Ki: 0.387 µM
p70S6K human enzyme; [5]
  Ki: 0.387 µM
[1]
  concentration at 15 min: 1.64 µM

## C#Cc1cccc(CN2CCC[C@H](Nc3ccc4[nH]ncc4c3)C2)c1 [Compound 1.153, (S)-N-(1-(3-ethynylbenzyl)piperidin-3-yl)-1H-indazol-5-amine]
ROCK1; Avg, 10 μM ATP
  Ki: 0.0628 µM
ROCK1; average Ki
  Ki: 0.0628 µM
ROCK2; [2]
  Ki: 0.0042 µM
ROCK2; average Ki, read-out: ROCK2 Ki
  Ki: 0.0042 µM
Akt3 human enzyme; [3]
  Ki: 9.95 µM
Akt3 human enzyme; average Ki, read-out: Akt3 Ki
  Ki: 9.95 µM
p70S6K human enzyme; [4]
  Ki: 2.38 µM
p70S6K human enzyme; [5]
  Ki: 2.38 µM
[1]
  concentration at 15 min: 0.522 µM

## Fc1ccc(CN2CCC[C@H](Nc3ccc4[nH]ncc4c3)C2)cc1 [Compound 1.164, (S)-N-(1-(4-fluorobenzyl)piperidin-3-yl)-1H-indazol-5-amine]
ROCK1; Avg, 10 μM ATP
  Ki: 0.0424 µM
ROCK1; average Ki
  Ki: 0.0424 µM
ROCK2; [2]
  Ki: 0.0061 µM
ROCK2; average Ki, read-out: ROCK2 Ki
  Ki: 0.0061 µM
Akt3 human enzyme; [3]
  Ki: 4.31 µM
Akt3 human enzyme; average Ki, read-out: Akt3 Ki
  Ki: 4.31 µM
p70S6K human enzyme; [4]
  Ki: 1.96 µM
p70S6K human enzyme; [5]
  Ki: 1.96 µM
[1]
  concentration at 15 min: 1.5 µM
